As a reminder, the log P is a log measure of how a compound divides between an organic and an aqueous phase. As a reminder, the pKa is the pH at which an ionisable group is half protonated.

Data set [1] is described as follows: Electrokinetic cross-membrane isolation (ECMI) of basic drugs; recovery in acceptor solution by capillary electrophoresis. Type of data set: physicochemical. Set-up: key to Recovery: *: Recovery was observed, but results were unreliable due to large standard deviations. Conditions: for Recovery: liquid membrane 2-octanone, 300 V, 5 min, 5.2 mm vial; for Enrichment: optimal ECMI, 300 μl sample to 30 μl acceptor.
Procedure: The DC power supply used was a model XFR 300-9 (Xantrex, Burnaby, BC, Canada) with a programmable voltage in the range 0 to 300 V, providing currents in the range 0 to 9 A. Simple steel wires with a diameter of 0.2 mm were used as electrodes in the sample and acceptor solutions, and were connected to the power supply. As sample compartment, 800 μL polypropylene vials with cap were used with a height of 35 mm and with an internal diameter of 5.2 mm (unknown supplier). […] The porous hollow fiber used for immobilization of the artificial liquid membrane and for housing the acceptor solution was a PP Q3/2 polypropylene hollow fiber (Membrana, Wuppertal, Germany) with an internal diameter of 1.2 mm, with a 200 μm wall thickness, and with 0.2 μm pores. The ECMI was agitated at 1200 rpm during the experiments with a Vibramax 100 agitator (Heidolph, Kelheim, Germany).
ECMI was performed according to the following procedure; 300 μl acidified sample solution was filled into a polypropylene vial, and the positive electrode was placed in the sample. A 3.1 cm piece of polypropylene hollow fiber was closed in the lower end by mechanical pressure, whereas the upper end was connected to a 2.2 cm length pipette tip of polypropylene as a guiding tube. The hollow fiber and the guiding tube were then inserted through the cap of the sample vial. The hollow fiber was dipped for 5 s in the organic solvent serving as the artificial liquid membrane (typically 2-nitrophenyl octyl ether, nitrobenzene, 1-isopropyl nitrobenzene, octanol or heptanol), and excess of solvent was removed with a medical wipe. With a micro syringe, 30 μL of acceptor solution was filled into the hollow fiber, and the negative electrode was placed in the acceptor solution. Finally, the hollow fiber with acceptor solution was placed into the sample, and voltage (typically 300 V) was applied for 5 minutes. After electrokinetic cross-membrane isolation, the acceptor solution was collected with a micro syringe, and was transferred to a micro insert for the capillary electrophoresis instrument.
Capillary electrophoresis was performed with a MDQ instrument (Beckman, Fullerton, Calif., USA) equipped with a UV-detector. Separations were accomplished in a 75-μm-i.d. fused-silica capillary with an effective length of 20 cm (Beckman). The running buffer was 15 mM phosphate adjusted to pH 2.7 with ortho-phosphoric acid. The instrument was operated at 20 kV, which generated a current level of approximately 50 μA. Samples were introduced by hydrodynamic injection at 0.5 psi for 5 s. Detection was accomplished at 200 nm utilizing a 100×800 μm slit.
Recovery (R) during the cross-membrane isolation was calculated according to the following equation for each analyte: R=na,final/ns,initial×100%=(Va/Vs)(Ca,final/Cs,initial)·100% (1) where ns,initial and na,final are the number of moles of analyte originally present in the sample and the number of moles of analyte finally collected in the acceptor solution, respectively. Va is the volume of acceptor phase, Vs is the volume of sample, Ca,final is the final concentration of analyte in the acceptor phase, and Cs,initial is the initial analyte concentration within the sample.
Enrichment (E) during the cross-membrane isolation was calculated according to the following equation for each analyte: E=Ca,final/Cs,initial (2) Results and Discussion Initial Experiments.

The conditions of data set [2]: 1-octanol/water partition coefficient; Clarkes Analysis of Drugs and Poisons; cited from earlier work.
For data set [3] the following is noted: Clarkes Analysis of Drugs and Poisons; cited from earlier work.

Counter-ions that a name gives are not always drawn.

In the case of `CNCCC=C1c2ccccc2CCc2ccccc21` [Nortriptyline, nortriptyline hydrochloride], in data set [1], the Recovery entry is given as “*” and the Enrichment is 7.0. In addition, in data set [2], the “log P” value is listed as 1.7. Consider `CC(CN1c2ccccc2Sc2ccccc21)N(C)C` (centres unmarked) [Promethazine, promethazine], for which the “log P” value in data set [2] is reported as 2.9.

Regarding `COc1ccc(CN(CCN(C)C)c2ccccn2)cc1` [Mepyramine, mepyramine], the “log P” value in data set [2] is 2.8.

On to `CN[C@@H](C)Cc1ccccc1` [Metamfetamine, methamphetamine sulphate], for which, in data set [3], the pKa is 10.1. For `OCCN1CCN(CCCN2c3ccccc3Sc3ccc(C(F)(F)F)cc32)CC1` [Fluphenazine, fluphenazine], the “log P” value in data set [2] is recorded as 3.5. For the compound `CN(C)CCCN1c2ccccc2CCc2ccc(Cl)cc21` [Clomipramine, clomipramine], the “log P” value in data set [2] is listed as 5.2. Take `OCCOCCN1CCN(C(c2ccccc2)c2ccc(Cl)cc2)CC1` (centres unmarked) [Hydroxyzine, hydroxyzine]: the lipophilicity (log P) in data set [2] is listed as 2.4. For `C[C@H](N)[C@H](O)c1cccc(O)c1` [Metaraminol, metaraminol hydrochloride], in data set [2], the “log P” value is listed as −0.3. For the same compound, in data set [3], the pKa is 8.6. For the compound `CN1CCC[C@@H]1CCO[C@](C)(c1ccccc1)c1ccc(Cl)cc1` [Clemastine, clemastine], the “log P” value in data set [2] is on record as 5.7. Further, the pKa in data set [3] is 10.2.

For the compound `CCC(=O)C(CC(C)N(C)C)(c1ccccc1)c1ccccc1` (centres unmarked) [Methadone, methadone hydrochloride], in data set [1], the Recovery result is “*” and the Enrichment was determined as 7.9. As for `CN(C)C(=O)C(CCN1CCC(O)(c2ccc(Cl)cc2)CC1)(c1ccccc1)c1ccccc1` [Loperamide, loperamide hydrochloride], in data set [1], the Recovery result is “*” and the Enrichment came to 7.6. In addition, the “log P” value in data set [2] is 5.2. Also, the pKa in data set [3] is on record as 8.1.

On to `CCOC(=O)C1(c2ccccc2)CCN(C)CC1` [Pethidine, Pethidine hydrochloride], for which, in data set [1], the Recovery entry is “*” and the Enrichment came out at 7.0. Regarding `CC(=O)Nc1ccc(OCC(O)CNC(C)C)cc1` (centres unmarked) [Practolol, practolol], the “log P” value in data set [2] is −1.3.

With `O=C(CCCN1CCC(O)(c2ccc(Cl)cc2)CC1)c1ccc(F)cc1` [Haloperidol, haloperidol], in data set [1], the Recovery entry was “*” and the Enrichment is listed as 7.2. In addition, in data set [2], the “log P” value was 3.2. For `c1ccc(C2(N3CCCCC3)CCCCC2)cc1` [Phencyclidine, phencyclidine], the lipophilicity (log P) in data set [2] was 4.7.
